In ChEMBL document CHEMBL4359906, “Design and synthesis of new N-terminal fatty acid modified-antimicrobial peptide analogues with potent in vitro biological activity” (Eur J Med Chem, 2019):
In brackets after ≈: the same amount, converted by molar mass. Activity calls are given as the source filed them. The rule behind the calls is not given here.

Columns and labels:
Staphylococcus aureus [1] = test: Antibacterial activity against Staphylococcus aureus ATCC 25923 after 18 hrs in presence of MgCl2 by CLSI based broth microdilution method (reference value: 8 microM); format: functional; details: ATCC 25923, 18 h
Staphylococcus aureus [2] = test: Antibacterial activity against Staphylococcus aureus ATCC 25923 after 18 hrs in presence of NaCl by CLSI based broth microdilution method (reference value: 8 microM); format: functional; details: ATCC 25923, 18 h
Staphylococcus aureus [3] = test: Antibacterial activity against Staphylococcus aureus ATCC 25923 after 18 hrs in presence of KCl by CLSI based broth microdilution method (reference value: 8 microM); format: functional; details: ATCC 25923, 18 h
Escherichia coli [4] = test: Antibacterial activity against Escherichia coli ATCC 25922 after 18 hrs in presence of MgCl2 by CLSI based broth microdilution method (reference value: 8 microM); format: functional; details: ATCC 25922, 18 h
Staphylococcus aureus [5] = test: Antibacterial activity against Staphylococcus aureus ATCC 25923 after 18 hrs in presence of FeCl3 by CLSI based broth microdilution method (reference value: 8 microM); format: functional; details: ATCC 25923, 18 h
Escherichia coli [6] = test: Antibiofilm activity against Escherichia coli ATCC 25922 assessed as reduction in biofilm inhibition at MIC after 24 hrs by crystal violet staining based assay relative to control; format: functional
Escherichia coli [7] = test: Ratio of MIC for Escherichia coli ATCC 25922 preincubated for 1 hr in presence of 10% mouse serum and measured after 18 hrs to MIC for antibacterial activity against Escherichia coli ATCC 25922 after 18 hrs; format: functional
[8] = Cytotoxicity against mouse RAW264.7 cells assessed as cell proliferation at 4 uM after 1 hr by MTT assay relative to control; format: cell-based; details: read-out: Activity
[9] = Selectivity index, ratio of MHC10 for human RBC to geometric mean of peptide MIC for gram negative bacteria; format: toxicity; details: human red blood cells, read-out: Selectivity Index
Escherichia coli [10] = test: Antimicrobial activity against Escherichia coli ATCC 25922 preincubated for 1 hr in presence of 10% mouse serum and measured after 18 hrs by CLSI-based broth microdilution assay (reference value: 8 microM); format: functional
Escherichia coli [11] = test: Antibacterial activity against Escherichia coli ATCC 25922 after 18 hrs in presence of FeCl3 by CLSI based broth microdilution method (reference value: 8 microM); format: functional; details: ATCC 25922, 18 h
Escherichia coli [12] = test: Antimicrobial activity against Escherichia coli ATCC 25922 preincubated for 6 hrs in presence of 10% mouse serum and measured after 18 hrs by CLSI-based broth microdilution assay (reference value: 8 microM); format: functional
Escherichia coli [13] = test: Induction of membrane disruption in Escherichia coli ATCC 25922 assessed as rough membrane surface at 4 times of MIC after 2 hrs by SEM analysis; format: functional, organism-based
Escherichia coli [14] = test: Antibacterial activity against Escherichia coli ATCC 25922 after 18 hrs in presence of KCl by CLSI based broth microdilution method (reference value: 8 microM); format: functional; details: ATCC 25922, 18 h
Escherichia coli [15] = test: Ratio of antibacterial activity against Escherichia coli ATCC 25922 in presence of KCl to antibacterial activity against Escherichia coli ATCC 25922; format: functional
Staphylococcus aureus [16] = test: Antibiofilm activity against Staphylococcus aureus ATCC 25923 at 1 to 2 times of MIC after 24 hrs by crystal violet staining based assay; format: functional, organism-based
Klebsiella pneumoniae = test: Antibacterial activity against Klebsiella pneumoniae ATCC 700603 after 18 hrs by CLSI based broth microdilution method; format: functional; details: Klebsiella pneumoniae, 700603, 18 h
Escherichia coli [17] = test: Antibacterial activity against Escherichia coli ATCC 25922 after 18 hrs in presence of NaCl by CLSI based broth microdilution method (reference value: 8 microM); format: functional; details: ATCC 25922, 18 h
[18] = Hemolytic activity in human RBC at 256 uM measured after 1 hr by microplate reader analysis relative to control; format: ADME, cell-based, Erythrocyte; details: human red blood cells (erythrocytes), read-out: Activity
Staphylococcus aureus [19] = test: Antibacterial activity against Staphylococcus aureus ATCC 25923 after 18 hrs in presence of MgCl2 by CLSI based broth microdilution method (reference value: 64 microM); format: functional; details: ATCC 25923, 18 h
Escherichia coli [20] = test: Antimicrobial activity against Escherichia coli ATCC 25922 at 1 mM preincubated for 6 hrs in presence of 2000 ug/ml chymotrypsin and measured after 18 hrs by microplate reader analysis; format: functional, organism-based

`CCCCCCCCCC(=O)NC(Cc1cn(CCCC[C@H](NC(C)=O)C(=O)NCC(=O)N[C@@H](CC(C)C)C(=O)N[C@@H](CC(C)C)C(=O)N[C@H](CCCCN)C(=O)N[C@@H](CCCNC(=N)N)C(=O)N[C@H](C(=O)N[C@H](CCCCN)C(=O)N[C@H](C(=O)N[C@@H](CC(C)C)C(=O)N[C@@H](CC(C)C)C(N)=O)[C@@H](C)O)[C@@H](C)CC)nn1)C(=O)NCC(=O)N[C@@H](CC(C)C)C(=O)N[C@@H](CC(C)C)C(=O)N[C@H](CCCCN)C(=O)N[C@@H](CCCNC(=N)N)C(=O)N[C@H](C(=O)N[C@H](CCCCN)C(=O)N[C@H](C(=O)N[C@@H](CC(C)C)C(=O)N[C@@H](CC(C)C)C(N)=O)[C@@H](C)O)[C@@H](C)CC` (some centres not stated) showed an MIC (Staphylococcus aureus [1]) of 4 µM, an MIC (Staphylococcus aureus [2]) of 8 µM and an MIC (Staphylococcus aureus [3]) of 16 µM. The MIC (Escherichia coli [4]) was 16 µM, the MIC (Staphylococcus aureus [5]) was 8 µM and the “inhibition (INH)” value (Escherichia coli [6]) was >50%. The Ratio (Escherichia coli [7]) was 1, the viability at 1 h, 4 µM [8] was < 80% and the selectivity ratio [9] was 3.2. The MIC (Escherichia coli [10]) was 8 µM, the MIC (Escherichia coli [11]) was 4 µM and the MIC (Escherichia coli [12]) was 16 µM. The Activity (Escherichia coli [13]) was “Active”, the MIC (Escherichia coli [14]) was 16 µM and the Ratio (Escherichia coli [15]) was 2 - 4. For the same molecule, the inhibition (Staphylococcus aureus [16]) was “Active”, the MIC (Klebsiella pneumoniae) was 16 µM (≈ 44 µg/mL) and the MIC (Escherichia coli [17]) was 8 µM.

For `CCCCCC(=O)NC(Cc1cn(CCCC[C@H](NC(C)=O)C(=O)NCC(=O)N[C@@H](CC(C)C)C(=O)N[C@@H](CC(C)C)C(=O)N[C@H](CCCCN)C(=O)N[C@@H](CCCNC(=N)N)C(=O)N[C@H](C(=O)N[C@H](CCCCN)C(=O)N[C@H](C(=O)N[C@@H](CC(C)C)C(=O)N[C@@H](CC(C)C)C(N)=O)[C@@H](C)O)[C@@H](C)CC)nn1)C(=O)NCC(=O)N[C@@H](CC(C)C)C(=O)N[C@@H](CC(C)C)C(=O)N[C@H](CCCCN)C(=O)N[C@@H](CCCNC(=N)N)C(=O)N[C@H](C(=O)N[C@H](CCCCN)C(=O)N[C@H](C(=O)N[C@@H](CC(C)C)C(=O)N[C@@H](CC(C)C)C(N)=O)[C@@H](C)O)[C@@H](C)CC` (some centres not stated), the MIC (Escherichia coli [4]) was 16 µM, the hemolysis at 1 h, 256 µM [18] was < 5% and the “inhibition (INH)” value (Escherichia coli [6]) was >50%. It also gave a Ratio (Escherichia coli [7]) of 1, a selectivity ratio [9] of 51.2 and an MIC (Escherichia coli [10]) of 8 µM. It also gave an MIC (Staphylococcus aureus [19]) of 64 µM, an MIC (Escherichia coli [11]) of 4 µM and an MIC (Escherichia coli [12]) of 16 µM. The Activity (Escherichia coli [13]) was “Active”, the MIC (Escherichia coli [14]) was 16 µM and the Ratio (Escherichia coli [15]) was 2 - 4. For the same molecule, the inhibition (Staphylococcus aureus [16]) was “Active”, the MIC (Klebsiella pneumoniae) was 16 µM (≈ 43.1 µg/mL) and the MIC (Escherichia coli [17]) was 32 µM.

In the case of `CCCCCCCCCCCC(=O)NC(Cc1cn(CCCC[C@H](NC(C)=O)C(=O)NCC(=O)N[C@@H](CC(C)C)C(=O)N[C@@H](CC(C)C)C(=O)N[C@H](CCCCN)C(=O)N[C@@H](CCCNC(=N)N)C(=O)N[C@H](C(=O)N[C@H](CCCCN)C(=O)N[C@H](C(=O)N[C@@H](CC(C)C)C(=O)N[C@@H](CC(C)C)C(N)=O)[C@@H](C)O)[C@@H](C)CC)nn1)C(=O)NCC(=O)N[C@@H](CC(C)C)C(=O)N[C@@H](CC(C)C)C(=O)N[C@H](CCCCN)C(=O)N[C@@H](CCCNC(=N)N)C(=O)N[C@H](C(=O)N[C@H](CCCCN)C(=O)N[C@H](C(=O)N[C@@H](CC(C)C)C(=O)N[C@@H](CC(C)C)C(N)=O)[C@@H](C)O)[C@@H](C)CC` (some centres not stated), the MIC (Staphylococcus aureus [1]) was 8 µM, the MIC (Staphylococcus aureus [2]) was 8 µM and the MIC (Staphylococcus aureus [3]) was 16 µM. For the same molecule, the MIC (Escherichia coli [4]) was 32 µM, the MIC (Staphylococcus aureus [5]) was 16 µM and the “inhibition (INH)” value (Escherichia coli [6]) was >50%. The Ratio (Escherichia coli [7]) was 2, the viability at 1 h, 4 µM [8] was < 80% and the selectivity ratio [9] was 2. The MIC (Escherichia coli [10]) was 16 µM, the Activity (Escherichia coli [20]) was “Active” and the MIC (Escherichia coli [11]) was 4 µM. The MIC (Escherichia coli [12]) was 32 µM, the Activity (Escherichia coli [13]) was “Active” and the MIC (Escherichia coli [14]) was 16 µM. The Ratio (Escherichia coli [15]) was 2 - 4, the inhibition (Staphylococcus aureus [16]) was “Active” and the MIC (Klebsiella pneumoniae) was 8 µM (≈ 22.2 µg/mL). It also gave an MIC (Escherichia coli [17]) of 16 µM.
